In US20220177485A1, “CAMPTOTHECIN DERIVATIVE, PREPARATION METHOD THEREFOR AND APPLICATION THEREOF” (MARINE BIOMEDICAL RESEARCH INSTITUTE OF QINGDAO CO., LTD., priority 2018, published 2022):
Values joined by “and” are separate entries in the source; they are usually repeats but may differ in a detail not shown here. Identical values can stand only once. Like-named read-outs stand apart in the source and are kept apart here. Marks after values point to notes of the source that are not given here.

Experiments:
[1] = test system: HCT-116 transplanted tumors; settings: for Inhibitory rate: day 23; for Tumor volume size: day 23, x ± SE
Procedure: Digesting collecting cells after the desired amount of cells. Diluting the cells into 250 million/ml cell suspension with 5 A culture medium containing 10% fetal bovine serum. […] Stay around tumor growth to 1 g tissue block, cutting short diameter growth of around 1 mm plaque, by inserting a catheter method. […] Compound of low dose group and high dose group were given by gavages once a week, respectively. The group of irinotecan and 5-fluorouracil were treated by intravenous every three days. Recording changes in body weight in mice, and tumors size three times a week.

[2] = test system: K562 cells (human chronic myeloid leukemia cells); experiment: growth inhibition of tumor cells in vitro, K562; assay type: cell-based; settings: K562 cell line, read-out: IC50 K562
Text: (§1) We tested compounds target a variety of tumor cell for the growth inhibition to show its antitumor activity by using the method of the field technicians known. Chooses the tumor cell lines include: A549 cell non-small cell lung cancer cell line (people), K562 cells (human chronic myeloid leukemia cells), NCI-H1975 cells (non-small cell lung adenocarcinoma cancer cell), MDA-MB-231 cells (human breast cancer cells) and HCT-116 cells (human colon cancer cells).

[3] = test system: A549 lung transplantation tumor model and RM-1 (prostate) transplantation tumor model; experiment: antitumor activity in vivo, transplanted tumor models in kunming mice; settings: intraperitoneal injection
Procedure: Using the known in the field of technology, the antitumor activity of compounds in vivo was tested in kunming mice transplanted tumor model. The transplantation tumor models tested including A549 lung transplantation tumor model and RM-1 (prostate) transplantation tumor model. We conducted the tests by intraperitoneal injection.

[4] = test system: NCI-H1975 cells (non-small cell lung adenocarcinoma cancer cell); experiment: growth inhibition of tumor cells in vitro, NCI-H1975; assay type: cell-based; settings: Homo sapiens
Text: as §1

[5] = test system: MDA-MB-231 cells (human breast cancer cells); experiment: growth inhibition of tumor cells in vitro, MDA-MB-231; assay type: cell-based; settings: Homo sapiens
Text: as §1

[6] = test system: HCT-116 cells (human colon cancer cells); experiment: cells; assay type: cell-based; settings: for IC50: Homo sapiens
Text: as §1

[7] = target: heat shock protein (HSP90); experiment: macromolecular interaction on chip, HSP90; assay type: binding; settings: compound fixed on the chip; HSP90 100 nM
Procedure: (§2) The experimental scheme: 1. Fixed the compounds on the chip:
(§3) Mobile phase were EGF (1 μM), FGF (1 μM), HSP90 (100 nM), FKBP12 (100 nM).
(§4) Detection whether small molecule compounds combined with the provided protein of heat shock protein (HSP90), epidermal growth factor (EGF) and fibroblast growth factor (FGF); and provide relevant data of combined dynamics.

[8] = target: T1, epidermal growth factor (EGF) (Homo sapiens, UniProt P01133); experiment: macromolecular interaction on chip, EGF; assay type: binding; settings: for KD EGF: compound fixed on the chip, EGF 1 μM
T1 construct: epidermal growth factor (EGF)
Procedure: as §2, §3, §4

[9] = target: fibroblast growth factor (FGF); experiment: macromolecular interaction on chip, FGF; assay type: binding; settings: compound fixed on the chip; FGF 1 μM
Procedure: as §2, §3, §4

[10] = test system: A549 cell non-small cell lung cancer cell line; experiment: growth inhibition of tumor cells in vitro, A549; assay type: cell-based, human; settings: Homo sapiens, A549, A549 cell line; read-out: IC50 A549
Text: as §1

[11] = 20 mg/kg intravenous every three days
[12] = NCI-H1975, read-out: IC50 NCI-H1975
[13] = MDA-MB-231, read-out: IC50 MDA-MB-231
[14] = HCT-116, read-out: IC50 HCT-116
[15] = NCI-H1975 cell line, read-out: IC50 NCI-H1975
[16] = MDA-MB-231 cell line, read-out: IC50 MDA-MB-231
[17] = HCT-116 cell line, read-out: IC50 HCT-116

T1 sequence (P01133 971-1023 limits assumed, species assumed): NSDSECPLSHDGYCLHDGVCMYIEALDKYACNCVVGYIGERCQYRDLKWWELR

SMILES	antitumor activity in vivo compared with topotecan [3]	KD HSP90 [7]	KD EGF [8]	KD FGF [9]	IC50 [4, 15] [nM]	IC50 [5, 16] [nM]	IC50 [6, 17] [nM]	further results
O=c1[nH]cc(F)c(=O)[nH]1 [5 - fluorouracil, 5-fluorouracil, reference compound]								Inhibitory rate [1, 11]: 55.64^a %; Tumor volume size [1, 11]: 342.28 ± 128.00^a mm^3
CC[C@@]1(O)C(=O)OCc2c1cc1n(c2=O)Cc2c-1nc1cc3c(cc1c2CCc1ccc(N2CCCC2)c(F)c1)OCO3 [Compound 11, 20(S)-7-(3-fluoro-4-(pyrrolidin-1-yl))-10,11-methylenedioxy-camptothecin]	better than that of topotecan							IC50 [2]: 305 ± 8.75 nM; melting point: > 250 °C
CC[C@@]1(O)C(=O)OCc2c1cc1n(c2=O)Cc2c-1nc1cc3c(cc1c2CCc1ccccc1N1CCOCC1)OCO3 [Compound 15]	better than that of topotecan							melting point: > 250 °C
CC[C@@]1(O)C(=O)OCc2c1cc1n(c2=O)Cc2c-1nc1cc3c(cc1c2-c1ccncc1)OCO3 [Compound 21, 20(S)-7-(pyridin-4-yl)-10,11-methylenedioxy-camptothecin]		No combination	can combine	can combine				IC50 [4, 12]: 20.4 ± 3.65 nM; IC50 [5, 13]: 4.92 ± 0.36 nM; IC50 [6, 14]: 0.74 ± 0.07 nM; Kd [8]: 49.3 nM; Kd [9]: 18.9 nM
CC[C@@]1(O)C(=O)OCc2c1cc1n(c2=O)Cc2c-1nc1cc3c(cc1c2-c1ccoc1)OCO3 [Compound 23, 20(S)-7-(furan-3-yl)-10,11-methylenedioxy-camptothecin]	better than that of topotecan	No combination	No combination	No combination	95.5 ± 5.57	83.8 ± 6.64	2.97 ± 0.25	mice weight change ([1]; high and low dose group, weight returned after 10 days but still lower than control): declined; Tumor volume size ([1]; high dose 5 mg/kg, gavage once a week): 19.94 ± 2.17*^a mm^3; Inhibitory rate ([1]; high dose 5 mg/kg, gavage once a week, 5 mg/kg): 87.04% and 95.45^a %; Tumor volume size ([1]; low dose 2.5 mg/kg, gavage once a week): 100.52 ± 20.45*^a mm^3; Inhibitory rate ([1]; low dose 2.5 mg/kg, gavage once a week, 2.5 mg/kg): 95.45% and 87.04^a %
CC[C@@]1(O)C(=O)OCc2c1cc1n(c2=O)Cc2c-1nc1cc3c(cc1c2-c1ccsc1)OCO3 [Compound 24, 20(S)-7-(thiophene-3-yl)-10,11-methylenedioxy-camptothecin]		No combination	No combination	No combination	16.2 ± 0.83	1.93 ± 0.26	0.21 ± 0.02	ranking of cytotoxic activity in HCT-116 [6]: best cytotoxic activity
CC[C@@]1(O)C(=O)OCc2c1cc1n(c2=O)Cc2c-1nc1cc3c(cc1c2-c1cnn(C)c1)OCO3 [Compound 25, 20(S)-7-(1-methyl-1H-pyrazol-4-yl)-10,11-methylenedioxy-camptothecin]		No combination	No combination	No combination	35.2 ± 3.15	3.76 ± 1.08	0.34 ± 0.06	
CC[C@@]1(O)C(=O)OCc2c1cc1n(c2=O)Cc2c-1nc1cc3c(cc1c2-c1ccc2[nH]ccc2c1)OCO3 [Compound 29]								IC50 [4, 12]: 79.7 ± 3.52 nM; IC50 [5, 13]: 7.98 ± 0.72 nM; IC50 [6, 14]: 1.84 ± 0.11 nM
CC[C@@]1(O)C(=O)OCc2c1cc1n(c2=O)Cc2c-1nc1cc3c(cc1c2-c1ccnn1C)OCO3 [Compound 30]								IC50 [4, 12]: 37.3 ± 2.82 nM; IC50 [5, 13]: 43.4 ± 2.18 nM; IC50 [6, 14]: 0.93 ± 0.08 nM
CC[C@@]1(O)C(=O)OCc2c1cc1n(c2=O)Cc2c-1nc1cc3c(cc1c2CCN1CCOCC1)OCO3 [Compound 51, 20(S)-7-(2-morpholinoethyl)-10,11-methylenedioxy-camptothecin]	better than that of topotecan	No combination	can combine	can combine				IC50 [2]: 13 ± 3.25 nM; Kd [8]: 4.15 nM; Kd [9]: 46 nM
CCc1c2c(nc3ccc(OC(=O)N4CCC(N5CCCCC5)CC4)cc13)-c1cc3c(c(=O)n1C2)COC(=O)[C@]3(O)CC [Irinotecan, reference compound]								Inhibitory rate ([1]; 6 mg/kg intravenous every three days): 78.12^a %
CC[C@@]1(O)C(=O)OCc2c1cc1n(c2=O)Cc2cc3c(CN(C)C)c(O)ccc3nc2-1 [Topotecan, reference compound]		No combination	No combination	No combination	> 500	123 ± 18.2	> 500	IC50 [10]: 559 ± 8.6 nM; IC50 [2]: 636 ± 8.95 nM
